Some test systems named below: 786-0; BT-549; DU-145; EKVX; HL-60; HT-29; MDA-MB-435; MOLT-4; Malme-3M; NCI-H522; OVCAR-5; PC-3; RXF 393; SF-268; SK-MEL-28; SNB-75; UACC-62; UO-31; RPMI-8226.
Common to all, as to test: NCI anticancer screen, dose series, 48 h

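1) Cells in 96-well plates. 2) Compound, 48 h, 5 concentrations. 3) Linear interpolation between surrounding doses. 4) Unreached endpoint = highest concentration. The concentration for 50% growth inhibition is given as GI50.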 The source made the active and inactive calls. Cut-off read from the data, not from the text of the source: active = GI50 up to about 1.1 µM and inactive = higher.

The source of these data is ChEMBL document CHEMBL1201862, “PubChem BioAssay data set” (2004).

`CCN(CC)/C(Cl)=C(Cl)\C(=C1\Nc2ccc(OC)cc21)[N+](=O)[O-]`: the GI50 with 786-0 was 47.9 µM (inactive); in the experiment with BT-549, 37.1 µM (inactive); with DU-145, 37.8 µM (inactive); in the experiment with EKVX, 30.1 µM (inactive); with HL-60 it was 32.3 µM (inactive); with HT-29 it was 56.2 µM (inactive). Also, the GI50 is 37.2 µM (inactive) in the experiment on MDA-MB-435; 23.1 µM (inactive) in the experiment with MOLT-4; > 100 µM (inactive) in the experiment with Malme-3M; 20.2 µM (inactive) in the experiment with NCI-H522; 95.7 µM (inactive) with OVCAR-5; 31.6 µM (inactive) with PC-3. In addition, the GI50 in the experiment on RXF 393 is 15.7 µM (inactive); in the experiment with SF-268, 50.4 µM (inactive); with SK-MEL-28 it was 55.7 µM (inactive); in the experiment on SNB-75 it was 15.3 µM (inactive); in the experiment with UACC-62, 88.5 µM (inactive); in the experiment with UO-31, 95.1 µM (inactive).
`CCCCOc1ccc(/C=C/C2=[N+](CCO)CCO2)cc1`: the GI50 in the experiment on 786-0 is 54.1 µM (inactive); in the experiment on BT-549, > 100 µM (inactive); with DU-145, > 100 µM (inactive); in the experiment on EKVX, > 100 µM (inactive); in the experiment on HL-60 it was 21.7 µM (inactive); in the experiment with HT-29 it was 17.6 µM (inactive). Besides, the GI50 with MDA-MB-435 is > 100 µM (inactive); in the experiment with MOLT-4 it was 53 µM (inactive); in the experiment on Malme-3M it was 80 µM (inactive); in the experiment on NCI-H522 it was 21.5 µM (inactive); with OVCAR-5, > 100 µM (inactive); with PC-3 it was 68.4 µM (inactive). For the same compound, the GI50 in the experiment on RPMI-8226 was 26.8 µM (inactive); with RXF 393 it was 17.9 µM (inactive); in the experiment with SF-268, > 100 µM (inactive); with SK-MEL-28, > 100 µM (inactive); with SNB-75, 67.1 µM (inactive); in the experiment with UACC-62, > 100 µM (inactive). Further, the GI50 in the experiment with UO-31 is 32.1 µM (inactive).
`O=C(c1cccnc1)N1N=C(c2ccc3c(c2)OCO3)CC1(O)c1cc(F)c(Cl)cc1Cl` (stereo unspecified): the GI50 was 18.6 µM (inactive) in the experiment with 786-0; 20.9 µM (inactive) in the experiment with BT-549; 20.9 µM (inactive) in the experiment with DU-145; 20.5 µM (inactive) in the experiment with EKVX; 20.2 µM (inactive) with HL-60; 17.7 µM (inactive) in the experiment on HT-29. Besides, the GI50 in the experiment with MDA-MB-435 was 27 µM (inactive); with MOLT-4, 15.3 µM (inactive); in the experiment with Malme-3M, 23.4 µM (inactive); in the experiment with NCI-H522, 17 µM (inactive); with OVCAR-5, 22.3 µM (inactive); in the experiment on PC-3, 21.5 µM (inactive). The GI50 in the experiment with RPMI-8226 is 27.2 µM (inactive); in the experiment on RXF 393, 12.7 µM (inactive); in the experiment on SF-268 it was 19.9 µM (inactive); in the experiment with SK-MEL-28 it was 25.5 µM (inactive); in the experiment with SNB-75 it was 15.2 µM (inactive); with UO-31, 17.3 µM (inactive).
Regarding `CC1(C)CC2=NO[Se]3=C2C(=NO3)C1`, the GI50 with 786-0 is 1.94 µM (inactive); in the experiment on BT-549, 1.47 µM (inactive); in the experiment on DU-145 it was 3.83 µM (inactive); in the experiment on EKVX, 2.8 µM (inactive); in the experiment with HL-60, 2.22 µM (inactive); in the experiment with HT-29, 0.929 µM (active). Moreover, the GI50 was 3.43 µM (inactive) with MDA-MB-435; 3.48 µM (inactive) with MOLT-4; 1.9 µM (inactive) in the experiment with NCI-H522; 5.11 µM (inactive) in the experiment with OVCAR-5; 0.394 µM (active) with PC-3; 3.14 µM (inactive) in the experiment on RPMI-8226. Besides, the GI50 was 3.15 µM (inactive) in the experiment with RXF 393; 5.3 µM (inactive) in the experiment with SF-268; 4.54 µM (inactive) with SK-MEL-28; 2.68 µM (inactive) in the experiment with SNB-75; 2.27 µM (inactive) in the experiment with UACC-62; 2.98 µM (inactive) with UO-31.
As for `CCOC(=O)c1cc2nc3ccccc3c(=O)n2c2ccccc12`, the GI50 with 786-0, in the experiment on BT-549, with DU-145, in the experiment on EKVX, in the experiment with HL-60 and in the experiment on HT-29 was > 10 µM (inactive) throughout. In addition, the GI50 with MDA-MB-435, in the experiment on Malme-3M, in the experiment on NCI-H522, in the experiment on OVCAR-5, in the experiment on PC-3 and with RPMI-8226 was > 10 µM (inactive) in each case. The GI50 was > 10 µM (inactive) in the experiment on RXF 393; > 10 µM (inactive) in the experiment with SF-268; > 10 µM (inactive) in the experiment on SK-MEL-28; 6.32 µM (inactive) with SNB-75; > 10 µM (inactive) in the experiment with UACC-62; > 10 µM (inactive) in the experiment with UO-31.
On to `COC(=O)CC1C(C)(C)C(=O)C2CC3=C4CC(=O)OC(c5ccoc5)C4(C)CCC3C1(C)C2=O` (stereo unspecified), for which the GI50 with 786-0 was > 100 µM (inactive); with BT-549, > 100 µM (inactive); in the experiment on DU-145, > 100 µM (inactive); in the experiment on EKVX, > 100 µM (inactive); with HL-60, 44.4 µM (inactive); in the experiment on HT-29, > 100 µM (inactive). The GI50 in the experiment with MDA-MB-435, with MOLT-4, with Malme-3M, in the experiment on NCI-H522, in the experiment with OVCAR-5 and in the experiment on PC-3 was > 100 µM (inactive) in each case. Moreover, the GI50 in the experiment with RPMI-8226, in the experiment on RXF 393, with SF-268, with SK-MEL-28, in the experiment with SNB-75 and in the experiment with UACC-62 was > 100 µM (inactive) each time.
Consider `CCC/C=C/C=C/C1CC(O)C(O)C(=O)C1CO` (stereo unspecified), for which the GI50 in the experiment with 786-0 was > 100 µM (inactive); in the experiment with BT-549, > 100 µM (inactive); in the experiment on DU-145 it was > 100 µM (inactive); with EKVX, > 100 µM (inactive); in the experiment on HL-60 it was 48.2 µM (inactive); in the experiment with HT-29 it was > 100 µM (inactive). Also, the GI50 in the experiment on MDA-MB-435 is > 100 µM (inactive); in the experiment with NCI-H522 it was 55.2 µM (inactive); with OVCAR-5, > 100 µM (inactive); with PC-3 it was 51.1 µM (inactive); in the experiment on RPMI-8226, > 100 µM (inactive); in the experiment with RXF 393, > 100 µM (inactive). Moreover, the GI50 with SF-268, in the experiment with SK-MEL-28, in the experiment with SNB-75, in the experiment with UACC-62 and in the experiment on UO-31 was > 100 µM (inactive) in each case.
On to `COc1cc2c(cc1OC)CC(N=[N+]=[N-])c1cc(OC)c(OC)cc1/C=C\2` (stereo unspecified), for which the GI50 in the experiment on 786-0 is 34.1 µM (inactive); in the experiment on BT-549, 0.826 µM (active); in the experiment on DU-145, > 100 µM (inactive); in the experiment with EKVX, 43.2 µM (inactive); in the experiment with HL-60 it was 10 µM (inactive); in the experiment on HT-29 it was 44.5 µM (inactive). The GI50 is 10.8 µM (inactive) in the experiment with MDA-MB-435; 41 µM (inactive) in the experiment with MOLT-4; 50.9 µM (inactive) in the experiment with NCI-H522; > 100 µM (inactive) in the experiment with OVCAR-5; 30.8 µM (inactive) in the experiment with PC-3; 35.3 µM (inactive) in the experiment on RPMI-8226. For the same compound, the GI50 in the experiment on SF-268 is 51.8 µM (inactive); in the experiment on SK-MEL-28 it was 89.1 µM (inactive); in the experiment with SNB-75, 16.6 µM (inactive); in the experiment on UACC-62, 30 µM (inactive); in the experiment with UO-31, 38.5 µM (inactive).
For the compound `CC(=O)Nc1ccc2nc(N)n[n+]([O-])c2c1`, the GI50 in the experiment on 786-0, in the experiment with BT-549, in the experiment with DU-145, in the experiment on EKVX, in the experiment on HL-60 and in the experiment on HT-29 was > 100 µM (inactive) each time. Also, the GI50 in the experiment on MDA-MB-435, in the experiment on MOLT-4, with NCI-H522, with OVCAR-5, in the experiment on PC-3 and in the experiment on RPMI-8226 was > 100 µM (inactive) each time. Further, the GI50 in the experiment on SF-268 was > 100 µM (inactive); with SK-MEL-28, > 100 µM (inactive); with SNB-75, 41.4 µM (inactive); in the experiment on UACC-62, > 100 µM (inactive); with UO-31 it was > 100 µM (inactive).
Take `O=C(Nn1c(-c2ccccc2)nc2ccccc2c1=O)c1cccc([N+](=O)[O-])c1`: the GI50 in the experiment on 786-0 is > 100 µM (inactive); in the experiment with BT-549 it was 32.3 µM (inactive); in the experiment with DU-145, > 100 µM (inactive); with EKVX, 57.9 µM (inactive); with HL-60, > 100 µM (inactive); in the experiment with HT-29, 79.8 µM (inactive). For the same compound, the GI50 was > 100 µM (inactive) in the experiment with MDA-MB-435; 39.9 µM (inactive) with MOLT-4; 67 µM (inactive) in the experiment on NCI-H522; > 100 µM (inactive) in the experiment with OVCAR-5; 43.1 µM (inactive) in the experiment with PC-3; 46.8 µM (inactive) with RPMI-8226. Besides, the GI50 is > 100 µM (inactive) in the experiment with RXF 393; > 100 µM (inactive) in the experiment with SF-268; 79.6 µM (inactive) in the experiment on SK-MEL-28; > 100 µM (inactive) in the experiment with SNB-75; 29.2 µM (inactive) in the experiment with UACC-62; 39.3 µM (inactive) in the experiment on UO-31.
In the case of `COc1ccc(S(=O)(=O)n2c3c(c4ccccc42)[C@@H]2[C@@H](CCCN2C(=O)C[S+]([O-])c2ccc(C)cc2)[C@H](Cl)C3)cc1` (stereo partly specified), the GI50 with 786-0 is > 100 µM (inactive); in the experiment with BT-549, 5.83 µM (inactive); in the experiment on DU-145, > 100 µM (inactive); in the experiment with EKVX, > 100 µM (inactive); in the experiment on HL-60, 99.8 µM (inactive); in the experiment with HT-29, > 100 µM (inactive). Also, the GI50 in the experiment on MDA-MB-435, in the experiment with MOLT-4, in the experiment with Malme-3M, in the experiment with NCI-H522, in the experiment with OVCAR-5 and in the experiment on PC-3 was > 100 µM (inactive) each time. In addition, the GI50 with RXF 393, with SF-268, in the experiment with SK-MEL-28, in the experiment on SNB-75, in the experiment with UACC-62 and in the experiment on UO-31 was > 100 µM (inactive) each time.
